According to US20230064809A1, “SUBSTITUTED AMINOQUINOLONES AS DGKALPHA INHIBITORS FOR IMMUNE ACTIVATION” (Bayer Aktiengesellschaft, priority 2019, published 2023):

Target: T1, DGKα (Homo sapiens, UniProt P23743)
Assay: not given
Settings: literature report; cited from earlier work
Target sequence in this assay (P23743 whole entry, species assumed): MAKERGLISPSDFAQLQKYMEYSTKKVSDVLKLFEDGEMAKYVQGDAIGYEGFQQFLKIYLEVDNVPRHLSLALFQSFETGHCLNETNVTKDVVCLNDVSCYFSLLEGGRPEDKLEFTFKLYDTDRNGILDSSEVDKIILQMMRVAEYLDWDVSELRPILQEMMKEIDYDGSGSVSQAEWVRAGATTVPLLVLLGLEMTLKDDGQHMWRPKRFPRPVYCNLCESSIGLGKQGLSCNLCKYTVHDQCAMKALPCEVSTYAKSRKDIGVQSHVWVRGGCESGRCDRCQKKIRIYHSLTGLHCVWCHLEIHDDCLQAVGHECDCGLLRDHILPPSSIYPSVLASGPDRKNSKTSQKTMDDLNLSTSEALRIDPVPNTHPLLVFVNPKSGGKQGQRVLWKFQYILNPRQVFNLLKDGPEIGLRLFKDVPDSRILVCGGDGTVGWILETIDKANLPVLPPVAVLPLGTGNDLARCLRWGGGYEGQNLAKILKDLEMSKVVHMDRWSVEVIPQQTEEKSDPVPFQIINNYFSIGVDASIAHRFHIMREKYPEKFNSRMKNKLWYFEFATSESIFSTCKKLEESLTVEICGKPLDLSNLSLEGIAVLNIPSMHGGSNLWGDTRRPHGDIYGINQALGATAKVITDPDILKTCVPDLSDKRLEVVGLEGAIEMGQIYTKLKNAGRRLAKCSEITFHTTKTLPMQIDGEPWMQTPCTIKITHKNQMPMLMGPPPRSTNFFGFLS
For `Cc1ccc2c(C(=O)CN3CCN(C(=O)c4ccco4)CC3)c(C)[nH]c2c1` [AMB639752], the “inhibitory activity on DGKα” value is listed as “micromolar”.
For `O=C1/C(=C\C=C\c2ccco2)SC(=S)N1NS(=O)(=O)c1ccccc1` [CU-3], the “inhibitory activity on DGKα” value is listed as “sub-micromolar”.

Target: T1, DGKα
Assay: Human DGKα kinase activity inhibition assay (ADP-Glo)
Format: biochemical
Parameters: made in house; host or cells: Sf9 insect cells, baculovirus
Settings: in vitro, C-terminally FLAG-tagged recombinant full-length human DGKα, 1,2-dioleoyl-sn-glycerol substrate, ADP-Glo readout
Experimental: Human DGKα Kinase Activity Inhibition Assay. Human DGKα inhibitory activity of compounds of the present invention was quantified employing the human DGKα kinase activity assay as described in the following paragraphs. In essence, the enzyme activity was measured by quantification of the adenosine-di-phosphate (ADP) generated as a co-product of the enzyme reaction via the “ADP-Glo™ Kinase Assay” kit from the company Promega. This detection system works as follows: In a first step the ATP not consumed in the kinase reaction is quantitatively converted to […] (“ADP-Glo-reagent”), then the adenylate cyclase is stopped and the ADP generated in the kinase reaction converted to ATP, which subsequently generates in a luciferase-based reaction a glow-luminescence signal (“Kinase Detection Reagent”). C-terminally FLAG-tagged, recombinant full-length human DGKα (expressed in baculovirus infected insect cells, purified using anti-Flag pulldown and size exclusion chromatography as described below, DGKa_hu_1) was used as enzyme. As substrate for the kinase 1,2-dioleoyl-sn-glycerol, reconstituted in octyl-β-D-glucopyranoside micelles, was used. For the preparation of the micelles, 1 volume of a 16.1 mM solution of 1,2-dioleoyl-sn-glycerol (Avanti, Cat. #08001-25G) in chloroform was slowly evaporated using a nitrogen stream. Subsequently, 22.55 volumes of a 510 mM solution of octyl-β-D-glucopyranoside (Sigma-Aldrich, Cat. #08001-10G) in 50 mM MOPS buffer (pH 7.4) were added, and the mixture was sonicated in an ultrasonic bath for 20 s. Then 35 volumes of 50 mM MOPS buffer (pH 7.4) were added to yield a solution of 0.28 mM 1,2 dioleoyl-sn-glycerol and 200 mM octyl-β-D-glucopyranoside, which was aliquoted, flash-frozen in liquid nitrogen, and stored at −20° C. until use. For each experiment, a fresh aliquot was quickly thawed and diluted 24-fold with aqueous assay buffer (described below) containing 95.7 μM adenosine triphosphate (Promega) to yield a 1.67-fold concentrated substrate solution. For the assay 50 nl of a 100-fold concentrated solution of the test compound in dimethyl sulfoxide (DMSO, Sigma) was pipetted into either a white 1536-well or a white low-volume 384-well microtiter plate (both Greiner Bio-One, Frickenhausen, Germany). […] The concentration of DGK a was adjusted depending of the activity of the enzyme lot and was chosen appropriate to have the assay in the linear range, a typical concentration is about 0.1 nM. The reaction was stopped by the addition of 2.5 μl of “ADP-Glo-reagent” (1 to 1.5 diluted with water) and the resulting mixture was incubated at 22° C. for 1 h to convert the ATP no t consumed in the kinase reaction completely to […]. […] The amount of emitted light was taken as a measure for the amount of ADP generated and thereby for the activity of the DGKα.
Target sequence in this assay (P23743 with tags, fused parts or gaps): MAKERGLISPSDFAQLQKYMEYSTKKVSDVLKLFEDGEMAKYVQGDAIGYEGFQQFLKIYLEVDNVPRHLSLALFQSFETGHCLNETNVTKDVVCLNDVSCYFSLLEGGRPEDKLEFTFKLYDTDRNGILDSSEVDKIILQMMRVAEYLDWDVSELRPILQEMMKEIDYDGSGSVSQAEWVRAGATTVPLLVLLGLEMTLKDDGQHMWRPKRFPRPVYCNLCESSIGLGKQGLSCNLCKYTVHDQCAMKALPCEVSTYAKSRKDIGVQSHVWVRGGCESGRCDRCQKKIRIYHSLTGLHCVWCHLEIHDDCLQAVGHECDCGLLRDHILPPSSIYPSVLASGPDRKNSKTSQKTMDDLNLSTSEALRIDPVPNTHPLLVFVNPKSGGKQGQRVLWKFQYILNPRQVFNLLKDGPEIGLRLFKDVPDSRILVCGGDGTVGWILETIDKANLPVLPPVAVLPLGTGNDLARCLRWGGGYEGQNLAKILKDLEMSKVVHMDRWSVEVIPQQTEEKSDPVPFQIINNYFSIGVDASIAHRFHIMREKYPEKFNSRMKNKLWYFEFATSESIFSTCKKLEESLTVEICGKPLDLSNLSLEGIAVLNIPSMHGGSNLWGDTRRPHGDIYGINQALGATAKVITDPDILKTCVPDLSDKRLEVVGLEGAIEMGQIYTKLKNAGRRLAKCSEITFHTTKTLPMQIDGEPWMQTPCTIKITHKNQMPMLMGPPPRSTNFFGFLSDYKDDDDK
For `Cn1c(=O)c(C#N)c(N2CCC3(CN(c4ccc(OC(F)(F)F)cc4)C3)C2)c2ccc(Br)cc21` [Example 29, 7-bromo-1-methyl-2-oxo-4-{2-[4-(trifluoromethoxy)phenyl]-2,6-diazaspiro[3.4]octan-6-yl}-1,2-dihydroquinoline-3-carbonitrile], the IC50 was 46 nM.
`Cn1c(=O)c(C#N)c(N2CCC3(CN(c4ccc(Cl)cc4)C3)C2)c2ccc(Br)cc21` [Example 30, 7-bromo-4-[2-(4-chlorophenyl)-2,6-diazaspiro[3.4]octan-6-yl]-1-methyl-2-oxo-1,2-dihydroquinoline-3-carbonitrile] showed an IC50 of 75 nM.
For `CN1CCN(c2ccc3c(N4CCC5(CCN(c6cccc(OC(F)(F)F)c6)C5)CC4)c(C#N)c(=O)n(C)c3c2)CC1` [Example 31, 1-methyl-7-(4-methylpiperazin-1-yl)-2-oxo-4-{2-[3-(trifluoromethoxy)phenyl]-2,8-diazaspiro[4.5]decan-8-yl}-1,2-dihydroquinoline-3-carbonitrile], the IC50 was 645 nM.
Compound `COCCN(C)c1ccc2c(N3CCC4(CCN(c5cccc(OC(F)(F)F)c5)C4)CC3)c(C#N)c(=O)n(C)c2c1` [Example 32, 7-[(2-methoxyethyl)(methyl)amino]-1-methyl-2-oxo-4-{2-[3-(trifluoromethoxy)phenyl]-2,8-diazaspiro[4.5]decan-8-yl}-1,2-dihydroquinoline-3-carbonitrile] has an IC50 of 38 nM.
With `CN1CCN(c2ccc3c(N4CCC5(CCN(c6cccc(Cl)c6)C5)CC4)c(C#N)c(=O)n(C)c3c2)CC1` [Example 33, 4-[2-(3-chlorophenyl)-2,8-diazaspiro[4.5]decan-8-yl]-1-methyl-7-(4-methylpiperazin-1-yl)-2-oxo-1,2-dihydroquinoline-3-carbonitrile] the IC50 was 1170 nM.
With `COCCN(C)c1ccc2c(N3CCC4(CCN(c5cccc(Cl)c5)C4)CC3)c(C#N)c(=O)n(C)c2c1` [Example 34, 4-[2-(3-chlorophenyl)-2,8-diazaspiro[4.5]decan-8-yl]-7-[(2-methoxyethyl)(methyl)amino]-1-methyl-2-oxo-1,2-dihydroquinoline-3-carbonitrile] the IC50 was 19 nM.
`COCCN(C)c1ccc2c(N3CCC4(CCN(c5cccc(OC(F)(F)F)c5)C4)CC3)c(C(N)=O)c(=O)n(C)c2c1` [Example 35, 7-[(2-methoxyethyl)(methyl)amino]-1-methyl-2-oxo-4-{2-[3-(trifluoromethoxy)phenyl]-2,8-diazaspiro[4.5]decan-8-yl}-1,2-dihydroquinoline-3-carboxamide] showed an IC50 of 68 nM.
In the case of `COCCN(C)c1ccc2c(N3CCC4(CCN(c5cccc(Cl)c5)C4)CC3)c(C(N)=O)c(=O)n(C)c2c1` [Example 36, 4-[2-(3-chlorophenyl)-2,8-diazaspiro[4.5]decan-8-yl]-7-[(2-methoxyethyl)(methyl)amino]-1-methyl-2-oxo-1,2-dihydroquinoline-3-carboxamide], the IC50 is reported as 49 nM.
